This assay has as its system Homo sapiens skin malignant melanoma cells (A375.S2 cell line). Nature of the assay: MTT assay of survival of malignant melanoma cells. The note with it: for Relative survival rate (%) / Average of absorbance values (n = 4): 48 hours; for Relative survival rate (%): relative to control group, n = 4; for Average of absorbance values (n = 4): OD at 570 nm, MTT. Format: cell-based. Here is the method:
Homo sapiens skin malignant melanoma cells (A375.S2 cell line) were cultivated for 24 hours, and then divided into four groups (5×10^3 cells for each group). The four groups were respectively cultivated in the following medium for 48 hours: • 1. Control group: a MEM-NEAA medium contains 1 mmol of sodium pyruvate and 10% of FBS. • 2. High-dose group: a MEM-NEAA medium contains 1 mmol of sodium pyruvate, 10% of FBS and 1 mg/ml of the compound of formula (I) obtained from Example 1. • 3. Middle-dose group: a MEM-NEAA medium contains 1 mmol of sodium pyruvate, 10% of FBS and 0.5 mg/ml of the compound of formula (I) obtained from Example 1. • 4. Low-dose group: a MEM-NEAA medium contains 1 mmol of sodium pyruvate, 10% of FBS and 0.25 mg/ml of the compound of formula (I) obtained from Example 1.
Thereafter, the absorbance value (optical density, OD) at 570 nm of each group was determined by the MTT assay.
Steps of the above cultivation and MTT assay were repeated four times. The absorbance values were averaged in each group, and the result of the control group was served as a basis for calculating the relative survival rate of other groups.
On the technique in general: Formazan colour is commonly taken as a measure of viable cells.

As for `COc1cc([C@@H]2Oc3c(OC)cc(/C=C/C(=O)NCCc4ccc(O)cc4)cc3[C@@H]2C(=O)NCCc2ccc(O)cc2)ccc1O` [compound of formula (I), N-trans-grossaminde], the “Relative survival rate (%)” value by setting is: (0.25 mg/ml compound in medium) 93.67%; (0.5 mg/ml compound in medium) 22.14%; (1 mg/ml compound in medium) 12.24%. Further, the “Average of absorbance values (n = 4)” value is 0.733 (0.25 mg/ml compound), 0.1732 (0.5 mg/ml compound) and 0.09575 (1 mg/ml compound). For the same compound, the “induction of apoptosis of malignant melanoma cells” value (conclusion drawn from MTT survival rates) is reported as “effectively induce apoptosis”.

Values taken from patent US20180085340A1, “METHOD FOR TREATING MELANOMA” (TCI CO., LTD, priority 2016, published 2018).
